“And” between values parts separate entries of the source, which are not always exact repeats. Equal entries are not always repeated.
Tests used:
Format in all cases: cell-based
320 non-olfactory GPCRs [1] = biological target: T1, 320 non-olfactory GPCRs (Homo sapiens, UniProt P25024)
T1 construct: expressed in transfected cells; host or cells: HTLA cells

320 non-olfactory GPCRs [2] = biological target: T2, 320 non-olfactory GPCRs (Homo sapiens, UniProt P32247)
T2 construct: expressed in transfected cells; host or cells: HTLA cells

320 non-olfactory GPCRs [3] = biological target: T3, 320 non-olfactory GPCRs (Homo sapiens, UniProt P47900); conditions: receptor P2RY1; replicate values, Fig_4g
T3 construct: expressed in transfected cells; host or cells: HTLA cells

320 non-olfactory GPCRs [4] = biological target: T4, 320 non-olfactory GPCRs (Homo sapiens, UniProt Q96RI0)
T4 construct: expressed in transfected cells; host or cells: HTLA cells
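Wherever Fold of Basal is given: compound tested at 1 µM final concentration.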
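Wherever GPCRome agonism screen response is given: fold over basal response of each receptor without drug.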

T3 sequence (P47900 whole entry): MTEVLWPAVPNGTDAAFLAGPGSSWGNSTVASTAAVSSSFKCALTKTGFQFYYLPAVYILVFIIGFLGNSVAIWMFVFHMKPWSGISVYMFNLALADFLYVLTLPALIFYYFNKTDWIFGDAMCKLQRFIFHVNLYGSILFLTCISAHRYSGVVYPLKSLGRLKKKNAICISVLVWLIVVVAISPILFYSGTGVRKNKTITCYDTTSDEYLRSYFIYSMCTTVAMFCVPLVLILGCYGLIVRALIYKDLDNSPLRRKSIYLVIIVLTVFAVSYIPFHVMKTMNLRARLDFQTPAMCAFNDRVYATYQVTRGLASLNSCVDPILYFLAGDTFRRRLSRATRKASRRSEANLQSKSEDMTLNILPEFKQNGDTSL
T4 sequence (Q96RI0 18-385): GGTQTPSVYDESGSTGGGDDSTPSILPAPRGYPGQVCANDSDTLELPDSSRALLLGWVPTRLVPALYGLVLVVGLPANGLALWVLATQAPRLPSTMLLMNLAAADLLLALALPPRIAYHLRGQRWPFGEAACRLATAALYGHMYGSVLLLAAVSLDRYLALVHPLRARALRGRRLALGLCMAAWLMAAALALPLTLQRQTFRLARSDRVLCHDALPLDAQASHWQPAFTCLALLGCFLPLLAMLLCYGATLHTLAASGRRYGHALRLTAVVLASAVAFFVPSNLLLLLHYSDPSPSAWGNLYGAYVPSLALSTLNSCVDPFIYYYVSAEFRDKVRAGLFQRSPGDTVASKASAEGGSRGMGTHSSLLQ
T2 sequence (P32247 whole entry): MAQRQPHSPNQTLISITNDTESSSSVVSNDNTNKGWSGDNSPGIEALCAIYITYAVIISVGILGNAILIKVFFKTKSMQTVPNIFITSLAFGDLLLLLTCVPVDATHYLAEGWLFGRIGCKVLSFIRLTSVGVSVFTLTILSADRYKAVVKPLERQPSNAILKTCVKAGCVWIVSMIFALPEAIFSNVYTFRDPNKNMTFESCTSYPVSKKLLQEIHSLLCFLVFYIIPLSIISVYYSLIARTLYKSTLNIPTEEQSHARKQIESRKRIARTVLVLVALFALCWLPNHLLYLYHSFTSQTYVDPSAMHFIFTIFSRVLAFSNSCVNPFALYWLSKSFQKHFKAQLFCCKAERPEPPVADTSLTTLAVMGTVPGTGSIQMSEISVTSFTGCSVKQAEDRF
T1 sequence (P25024 whole entry): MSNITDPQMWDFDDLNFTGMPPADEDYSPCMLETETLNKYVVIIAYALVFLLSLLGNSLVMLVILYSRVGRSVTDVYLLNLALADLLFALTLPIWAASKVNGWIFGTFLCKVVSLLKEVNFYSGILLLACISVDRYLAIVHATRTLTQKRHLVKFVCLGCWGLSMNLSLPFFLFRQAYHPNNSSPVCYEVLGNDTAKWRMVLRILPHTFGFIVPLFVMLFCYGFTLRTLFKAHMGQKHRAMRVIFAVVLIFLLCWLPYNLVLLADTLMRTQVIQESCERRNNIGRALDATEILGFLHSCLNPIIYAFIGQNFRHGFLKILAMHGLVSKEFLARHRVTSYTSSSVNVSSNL

CCOc1cccc2cc(C(C)NCC3(O)CCCCC3)oc12 (stereo not shown) [O4LE6]
Fold of Basal (320 non-olfactory GPCRs [1]): 1.143 and 1.163 and 1.159 and 1.512 | Fold of Basal (320 non-olfactory GPCRs [2]): 1.192 and 1.354 and 1.033 and 1.091 | GPCRome agonism screen response (320 non-olfactory GPCRs [3]): 1.006 and 0.5483 and 1.2859 and 1.3533 | Fold of Basal (320 non-olfactory GPCRs [4]): 0.98 and 0.6043 and 0.591 and 0.7202
